We go through 20 compounds from ChEMBL document CHEMBL2321785, “Synthesis and SAR study of new thiazole derivatives as vascular adhesion protein-1 (VAP-1) inhibitors for the treatment of diabetic macular edema” (Bioorg Med Chem, 2013).

Structures are written as SMILES. Activity calls are given as the source filed them. The calls are words filed in the database; no cut-off is given here. Where only a bound is given, the exact number is not on record here.

Data set [1] concerns the target T1, Amine oxidase [copper-containing] 3 (Homo sapiens, UniProt Q16853).
T1 sequence (Q16853 whole entry): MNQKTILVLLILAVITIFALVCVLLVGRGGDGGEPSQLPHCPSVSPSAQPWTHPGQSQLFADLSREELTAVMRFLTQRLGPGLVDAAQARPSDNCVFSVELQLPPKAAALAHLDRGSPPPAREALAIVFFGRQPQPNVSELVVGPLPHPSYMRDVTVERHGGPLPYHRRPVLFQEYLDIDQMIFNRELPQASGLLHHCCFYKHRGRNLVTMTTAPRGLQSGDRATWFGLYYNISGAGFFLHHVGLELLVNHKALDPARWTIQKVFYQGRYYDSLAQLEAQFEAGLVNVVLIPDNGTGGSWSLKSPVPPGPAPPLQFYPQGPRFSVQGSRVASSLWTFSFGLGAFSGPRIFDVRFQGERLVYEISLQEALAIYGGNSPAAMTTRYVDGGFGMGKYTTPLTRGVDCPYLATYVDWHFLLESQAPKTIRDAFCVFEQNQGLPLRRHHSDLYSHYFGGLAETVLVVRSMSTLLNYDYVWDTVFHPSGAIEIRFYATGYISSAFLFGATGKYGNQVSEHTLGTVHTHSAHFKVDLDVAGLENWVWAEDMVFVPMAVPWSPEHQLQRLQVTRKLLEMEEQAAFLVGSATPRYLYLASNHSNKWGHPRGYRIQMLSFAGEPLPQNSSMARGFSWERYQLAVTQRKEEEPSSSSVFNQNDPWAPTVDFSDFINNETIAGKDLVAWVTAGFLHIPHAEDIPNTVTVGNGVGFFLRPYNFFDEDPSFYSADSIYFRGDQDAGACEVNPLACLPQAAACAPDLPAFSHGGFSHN
The data set is described as follows: Inhibition of human VAP1 expressed in CHO cells using [14C]-benzylamine as substrate incubated for 30 mins prior to substrate addition measured after 1 hr by scintillation spectrophotometric analysis. It counts as cell-based.

Data set [2] is filed under the species Homo sapiens. The data set is described as follows: Selectivity ratio of IC50 for human DAO to IC50 for human VAP1.
Data set [3] has as its system Rattus norvegicus. The data set is described as follows: Inhibition of VAP1-mediated ocular permeability in streptozotocin-induced Sprague-Dawley rat diabetic model assessed as fluorescein leakage in vitreous at 1 to 10 mg/kg, sc administered daily for 4 weeks post streptozotocin challenge measured 24 hrs post last dose by fluorescence assay. The data set is classed as functional, organism-based.

In data set [4] the target is T2, Amine oxidase [copper-containing] 3 (Rattus norvegicus, UniProt O08590).
T2 sequence (O08590 whole entry): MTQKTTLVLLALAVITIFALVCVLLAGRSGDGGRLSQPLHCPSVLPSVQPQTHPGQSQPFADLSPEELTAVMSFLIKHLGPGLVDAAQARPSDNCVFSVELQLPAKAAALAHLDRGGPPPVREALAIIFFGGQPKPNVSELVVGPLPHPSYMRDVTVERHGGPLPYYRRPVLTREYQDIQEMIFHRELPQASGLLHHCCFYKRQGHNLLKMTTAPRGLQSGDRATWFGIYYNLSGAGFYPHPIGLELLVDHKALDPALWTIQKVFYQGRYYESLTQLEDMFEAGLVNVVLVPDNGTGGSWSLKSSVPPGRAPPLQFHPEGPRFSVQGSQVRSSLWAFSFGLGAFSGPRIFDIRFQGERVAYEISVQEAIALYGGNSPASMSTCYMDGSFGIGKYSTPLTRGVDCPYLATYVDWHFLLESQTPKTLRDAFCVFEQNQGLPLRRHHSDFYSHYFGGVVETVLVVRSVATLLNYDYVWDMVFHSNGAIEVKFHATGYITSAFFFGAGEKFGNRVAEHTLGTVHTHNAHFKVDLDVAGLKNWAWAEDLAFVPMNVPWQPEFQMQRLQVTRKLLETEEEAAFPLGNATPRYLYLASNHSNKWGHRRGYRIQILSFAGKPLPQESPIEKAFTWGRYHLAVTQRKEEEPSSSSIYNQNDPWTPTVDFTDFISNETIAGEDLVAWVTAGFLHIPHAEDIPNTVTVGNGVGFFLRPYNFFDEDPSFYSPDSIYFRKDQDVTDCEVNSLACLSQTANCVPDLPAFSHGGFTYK
The data set is described as follows: Inhibition of rat VAP1 expressed in CHO cells using [14C]-benzylamine as substrate incubated for 30 mins prior to substrate addition measured after 1 hr by scintillation spectrophotometric analysis. The data set is classed as cell-based.

Data set [5] relates to Plasma. The data set is described as follows: Plasma concentration in Wistar rat at 0.1 mg/kg, sc after 0.5 to 6 hrs by LC-MS analysis. The data set is classed as ADME, organism-based. Further details: dose 0.1 mg/kg, route subcutaneous. Particulars: in vivo.
For data set [6], the target named is T3, Amine oxidase [flavin-containing] B (Homo sapiens, UniProt P27338).
T3 sequence (P27338 whole entry): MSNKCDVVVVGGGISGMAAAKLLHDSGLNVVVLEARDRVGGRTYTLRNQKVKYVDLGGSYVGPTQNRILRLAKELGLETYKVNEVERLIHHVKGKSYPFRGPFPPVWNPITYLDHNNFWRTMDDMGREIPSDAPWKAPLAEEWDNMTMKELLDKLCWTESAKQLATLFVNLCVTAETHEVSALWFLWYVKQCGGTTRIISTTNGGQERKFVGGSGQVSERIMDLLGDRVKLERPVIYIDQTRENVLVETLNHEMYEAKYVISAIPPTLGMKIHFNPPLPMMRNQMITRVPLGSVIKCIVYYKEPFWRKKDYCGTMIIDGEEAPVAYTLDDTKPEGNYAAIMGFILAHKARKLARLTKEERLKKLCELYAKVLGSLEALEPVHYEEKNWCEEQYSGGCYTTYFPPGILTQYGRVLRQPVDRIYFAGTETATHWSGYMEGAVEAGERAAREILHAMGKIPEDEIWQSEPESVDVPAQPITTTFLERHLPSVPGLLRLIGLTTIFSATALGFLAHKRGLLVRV
The data set is described as follows: Inhibition of human MAOB expressed in CHO cells using benzylamine as substrate after 1 hr by fluorometric assay. The data set is classed as cell-based.

Data set [7] deals with Rattus norvegicus. The data set is described as follows: Inhibition of VAP1 in streptozotocin-induced Wistar rat diabetic model using [14C]-benzylamine as substrate assessed as [14C]-benzylaldehyde formation in plasma at >/= 0.1 mg/kg, sc after 1 hr by liquid scintillation counting analysis. It counts as functional, organism-based. Further details: dose 0.1 mg/kg.
Data set [8] is filed under the species Homo sapiens. The data set is described as follows: Selectivity ratio of IC50 for human MAOB to IC50 for human VAP1.
Data set [9] deals with Plasma. The data set is described as follows: Plasma concentration in sc dosed Wistar rat after 0.5 to 6 hrs by LC-MS analysis. It counts as ADME, organism-based. Particulars: in vivo.
Data set [10] is described as follows: Selectivity ratio of IC50 for human VAP1 to IC50 for rat VAP1.

The term IC50 denotes the concentration at which inhibition is half-maximal.

`N=C(N)Nc1ccc(CCc2csc(N)n2)cc1` yielded an IC50 in data set [1] of 22 µM. Still for that read-out and setting: the result for `CC(=O)Nc1nc(CCc2ccc(N)cc2)cs1` reads above 100 µM. `CC(=O)Nc1nc(CCc2ccc(NC3=NCCN3)cc2)cs1` had an IC50 in [1] of 3 µM.

In data set [1], `N=C(N)Nc1ccc(CCc2csc(NC(=O)c3ccccc3)n2)cc1` showed an IC50 of 11 µM.

As for `CC(=O)Nc1nc(CCc2ccc(NC3=NCCS3)cc2)cs1`, the half-inhibitory concentration (IC50) in data set [1] was 3.5 µM. This IC50 is about 3.1-fold lower than that of the compound before. With `CC(=O)Nc1cccc(CCc2ccc(NC(=N)N)cc2)c1`, the IC50 in [1] was found to be 15 µM. Compared with the last compound, the IC50 is about 4.3-fold higher. The same measure, in the same setting: the result for `CC(=O)Nc1nc(-c2ccc(CCNC(=N)N)cc2)cs1` reads 0.33 µM. Consider `CC(C)C(=O)Nc1nc(CCc2ccc(NC(=N)N)cc2)cs1`, for which the IC50 in data set [1] came out at 0.52 µM. Take `CC(=O)Nc1nc(Cc2ccc(NC(=N)N)cc2)cs1`: the half-maximal inhibitory concentration (IC50) in data set [1] turned out to be 42 µM. `CC(=O)Nc1nc(CCc2ccc(CCN)cc2)cs1` displayed an IC50 in [1] of 5 µM. This IC50 lies about 8.4-fold lower than the previous one. `CCNC(=N)Nc1ccc(CCc2csc(NC(C)=O)n2)cc1`: the half-maximal inhibitory concentration (IC50) in data set [1] turned out to be 0.68 µM.

Regarding `CC(=O)Nc1nc(CCc2ccc(NC=N)cc2)cs1`, half-maximal inhibition in data set [1] (IC50) was put at 0.73 µM.

Turning to `CC(=O)Nc1nc(CCc2ccc(N=C(N)NC(C)C)cc2)cs1`, the IC50 in [1] came to 1.1 µM. On the same count and under the same terms, the result for `CSC(=N)Nc1ccc(CCc2csc(NC(C)=O)n2)cc1` reads 1.1 µM; that for `CC(=O)Nc1nc(CCc2ccc(NC(=N)N(C)C)cc2)cs1`, above 100 µM. Regarding `CC(=O)Nc1nc(CCc2ccc(NC(=N)N)cc2)cs1`, the results for the Ratio IC50 (in the data set listed under Homo sapiens [2]; in the data set listed under Homo sapiens [8]; in [10]) were above 435, above 435 and 16, respectively. The inhibition result in the data set on Rattus norvegicus [3] and with Rattus norvegicus [7] was “Active” each time. Besides, the figures for the IC50 in data set [4], in [6] and in data set [1] were 0.014 µM, above 100 µM and 0.23 µM, respectively. The Cp with Plasma [5] was 21.8 ng/mL; in the data set with Plasma [9], “Dose-dependent effect”.

`CC(=O)Nc1nc(CCc2ccc(NC(N)=S)cc2)cs1`: the IC50 in [1] is above 10 µM.

`CC(=O)Nc1nc(CCCc2ccc(NC(=N)N)cc2)cs1` gave an IC50 in data set [1] of 8.8 µM. Same read-out and setting: the figure for `CC(=O)Nc1ccc(CCc2ccc(NC(=N)N)cc2)cc1` is 18 µM. Compound `CC(=O)Nc1ncc(CCc2ccc(NC(=N)N)cc2)s1` came in with an IC50 in data set [1] of 9.6 µM.
